Marks after values point to notes of the source that are not given here.
How the values were obtained:
Format in all cases: in vivo
[1] = tested on: M14 (human skin cancer) xenografts; assay: M14 xenograft growth inhibition; conditions: ITE 100-200 mg/kg i.p. once daily
Procedure: (§1) All the procedures related to animal handling, care, and the treatment in the study were performed following guidelines of KeyGen Biotechn Co., Ltd. (Nanjing, China), a contract research organization we hired, based on the guidance of the Association for Assessment and Accreditation of Laboratory Animal Care (AAALAC). Animals were checked for any effects of tumor growth and drug treatment on normal behavior such as mobility, food and water consumption, body weight gain/loss (bodyweights were measured every two days), eye/hair matting, and any other abnormal effect. Death and observed clinical signs were recorded. Individual animals with a tumor volume exceeding 3,000 mm^3 or animals of a group with a mean tumor volume exceeding 2,000 mm^3 were euthanized. In addition, animals showing signs of severe distress and/or pain or losing the capability of accessing adequate food or water were humanely sacrificed.
(§2) Cell lines HCT116, Siha, MFC were cultured in DMEM medium (high glucose) supplemented with 10% fetal bovine serum (FBS), SW116 and T24 in RPMI-1640 medium with 10% FBS, M14 and A375 in DMEM medium (high glucose) with 10% calf serum (CS), SGC7901 and Ketr-3 in RPMI-1640 medium with 10% CS, and CFPAC-1 in IMDM medium with 10% FBS. All of the cells were cultured, in the presence of 100 U/ml penicillin and 100 μg/ml streptomycin, at 37° C. in an atmosphere of 5% CO2 in air. […] The cells growing in an exponential phase were harvested and counted for tumor inoculation. Cell lines 5180 and U14 were maintained in ascites (peritoneal cavity fluid) of mice and were harvested and counted for tumor inoculation. […]
(§3) Tumor volume was measured every two days in two dimensions using a caliper and the volume was calculated with a formula of: V=0.5 a×b^2, where a and b are the long and short diameter (in mm) of a tumor, respectively. […] The TGD was calculated as: TGD=T−C, where T was the time (in days) required for tumors in a drug treated group to reach a predetermined mean tumor volume and C the time (in days) in the control group to reach the same volume. […]

[2] = tested on: Siha (human cervical cancer) xenografts; assay: Siha xenograft growth inhibition; conditions: ITE 100-200 mg/kg i.p. once daily
Procedure: as §1, §2, §3

[3] = ITE toxicity monitoring, 7-day i.p. dosing of ITE nano-suspension in C57BL/6 mice; conditions: for #LYMPH / #NEUT / ALT / AST / BUN / NEUT / PLT / TP / WBC: group mean
Procedure: ITE nano-suspension was prepared by milling ITE powder in water containing 1% CMC-Na (sodium carboxymethyl cellulose), 0.5% SLS (sodium lauryl sulfate), 0.085% PVP K90 (polyvinylpyrrolidone K90), and 0.2% Benzoate with a Media Wet Milling Machine (Dispermat SL-nano, WAB Willy A. Bachofen A G, Muttenz, Switzerland) until reached a desired size range. The particle size was determined by a Laser Diffraction Particle Size Analyzer (MS2000, Malvern Instruments, Worcestershire, UK). The parameters of particle sizes were determined as D10 (diameter of 10% of particles)=67 nm, D50=114 nm, and D90=207 nm. The nano-suspension thus prepared was stored at 4° C. until use.
Female C57BL/6 mice, 6 to 8 week old, were randomly assigned to 4 dose groups (0, 20, 100, and 500 mg/kg b.w.) each with 6 animals. ITE nano-suspension was administered by i.p. injection once daily for 7 consecutive days. Mortality, clinical signs, body weight, and food consumption were recorded. Data on hematology (3 of 6 mice) and serum chemistry (the other 3 of 6 mice) were collected. TK (Toxicokinetic) parameters were determined as described in Example 1 and plasma levels of ITE at both 1 and 3 hr. post dosing on day 1, 3, and 7 were measured. A gross observation of major organs at necropsy was conducted.

[4] = tested on: HCT116 (human colon cancer) xenografts; assay: HCT116 xenograft growth inhibition; conditions: ITE 100-200 mg/kg i.p. once daily
Procedure: as §1, §2, §3

[5] = end of therapy relative to beginning
[6] = 20 mg/kg ITE nano-suspension i.p. once daily 7 days
[7] = 100 mg/kg ITE nano-suspension i.p. once daily 7 days
[8] = 500 mg/kg ITE nano-suspension i.p. once daily 7 days
[9] = ITE nano-suspension 20, 100, 500 mg/kg b.w. i.p. once daily for 7 days

COC(=O)c1csc(C(=O)c2c[nH]c3ccccc23)n1 [ITE, 2-(1′H-indole-3′-carbonyl)-thiazole-4-carboxylic acid methyl ester]
TGD ([1]; TGD at Vol. 1,000): 5 days
TGI (%) ([1]; TGI at day 26, TGI=(1−ΔT/ΔC)×100%): 48%
Weight Loss [1, 5]: 15%
TGD ([2]; TGD at Vol. 1,000): 7 days
TGI (%) ([2]; TGI at day 24, TGI=(1−ΔT/ΔC)×100%): 53%
Weight Loss [2, 5]: 19%
BUN raised over vehicle ([3]; 20 mg/kg (low dose) group): 1.4 folds
#LYMPH [3, 6]: 3.35 ×10^9 cells
#NEUT [3, 6]: 1.08 ×10^9 cells
ALT [3, 6]: 43.2 U/L
AST [3, 6]: 118.1 U/L
BUN [3, 6]: 10.5* mmol/L
NEUT [3, 6]: 23.3%
PLT [3, 6]: 435 ×10^9 cells
TP [3, 6]: 39.5 g/L
WBC [3, 6]: 4.68 ×10^9 cells
WBC raised ([3]; 100 mg/kg (mid) group): 2.6 folds
#LYMPH [3, 7]: 3.5 ×10^9 cells
#NEUT [3, 7]: 3.62 ×10^9 cells
ALT [3, 7]: 33.2 U/L
AST [3, 7]: 131.6 U/L
BUN [3, 7]: 7.3 mmol/L
NEUT [3, 7]: 46.6%
PLT [3, 7]: 668 ×10^9 cells
TP [3, 7]: 40.8 g/L
WBC [3, 7]: 10.77* ×10^9 cells
ALT raised over vehicle control ([3]; 500 mg/kg (high dose) group): 3.2 folds
TP (total protein) raised over vehicle control ([3]; 500 mg/kg (high dose) group): 1.2 folds
AST raised over vehicle control ([3]; 500 mg/kg (high dose) group, not significant): 1.8 folds
WBC raised ([3]; 500 mg/kg (high) group, not significant): 2.0 folds
#LYMPH [3, 8]: 4.81 ×10^9 cells
#NEUT [3, 8]: 3.4 ×10^9 cells
ALT [3, 8]: 74.5* U/L
AST [3, 8]: 151.2 U/L
BUN [3, 8]: 9.1 mmol/L
NEUT [3, 8]: 40.5%
PLT [3, 8]: 1075 ×10^9 cells
TP [3, 8]: 49.5* g/L
WBC [3, 8]: 8.38 ×10^9 cells
body weight loss [3, 9]: no significant body weight loss
mortality [3, 9]: no mortality observed except that one mouse in 20 mg/kg b.w. (low dose) group died
food consumption ([3]; all 3 ITE treated groups, day 1 of the study): dramatic decrease in food consumption
major organ inspection at necropsy ([3]; all the ITE treated groups): No abnormality was observed
TGD ([4]; TGD at Vol. 1,000): 3 days
TGI (%) ([4]; TGI at day 18, TGI=(1−ΔT/ΔC)×100%): 41%
Weight Loss [4, 5]: 9%
